Values after ≈ are worked out from the molar mass of the structure shown.

What all share (type): functional
Test [1] relates to Staphylococcus aureus. Put plainly: Antibacterial activity against Staphylococcus aureus NARSA NRS127 harboring rplC T433 to T435 and L3 Ser145 deletion mutant by CLSI broth microdilution assay. On the technique in general: Broth dilution looks for growth in wells or tubes with falling amounts of substance.
Test [2] has as its system Staphylococcus epidermidis. Put plainly: Antibacterial activity against […] Staphylococcus epidermidis ATCC 12228 by CLSI broth microdilution assay.
The subject of test [3] is Staphylococcus aureus. Put plainly: Antibacterial activity against methicillin-susceptible Staphylococcus aureus ATCC 29213 by CLSI broth microdilution assay.
In test [4] the test system is Staphylococcus epidermidis. Put plainly: Antibacterial activity against Staphylococcus epidermidis 1653059 harboring rplC G469A/C470G, L3 Ala157Arg and 23S rRNA G2447T mutant by CLSI broth microdilution assay.

What is called MIC is the lowest concentration found to suppress growth. Read a high MIC as a less susceptible organism. Turning to `O=C(N[C@H](CO)[C@H](O)c1ccc([N+](=O)[O-])cc1)C(Cl)Cl` [CHLORAMPHENICOL], the MIC in test [1] was 8 mg/L (≈ 24.8 µM); in test [2], 1 mg/L (≈ 3.09 µM); in test [3], 8 mg/L (≈ 24.8 µM); in test [4] it was 2 mg/L (≈ 6.19 µM).
As for `Cn1nnc(-c2ccc(-c3ccc(N4C[C@H](CO)OC4=O)cc3F)cn2)n1` [TEDIZOLID], the MIC in test [1] was 1 mg/L (≈ 2.7 µM); in test [2], 0.25 mg/L (≈ 0.675 µM); in test [3], 0.5 mg/L (≈ 1.35 µM); in test [4], 16 mg/L (≈ 43.2 µM).
On to `CC(=O)NC[C@H]1CN(c2ccc(N3CCOCC3)c(F)c2)C(=O)O1` [LINEZOLID], for which the MIC in test [1] came to 8 mg/L (≈ 23.7 µM); in test [2], 1 mg/L (≈ 2.96 µM); in test [4] it was 256 mg/L (≈ 759 µM).
As for `C=C[C@]1(C)C[C@@H](OC(=O)CSCCN(CC)CC)[C@]2(C)[C@H](C)CC[C@]3(CCC(=O)[C@H]32)[C@@H](C)[C@@H]1O` [TIAMULIN], the MIC was 4 mg/L (≈ 8.1 µM) in test [1], 0.5 mg/L (≈ 1.01 µM) in test [2], 1 mg/L (≈ 2.03 µM) in test [3] and 8 mg/L (≈ 16.2 µM) in test [4].

These data come from ChEMBL document CHEMBL1649297, “Mutations in ribosomal protein L3 are associated with oxazolidinone resistance in staphylococci of clinical origin” (2009).
